Reference: ChEMBL document CHEMBL5729568, “Ras inhibitors” (2023)

Assays:
[1] = (§1) Biochemical Assay: A variety of Ras proteins may be inhibited by compounds of the present invention (e.g., K-Ras, N-Ras, H-Ras, and mutants thereof at positions 12, 13 and 61, such as G12C, G12D, G12V, G12S, G13C, G13D, and Q61L, and others described herein). The purpose of this biochemical assay is to measure the ability of test compounds to covalently label nucleotide-loaded K-Ras isoforms. […] The sample is incubated at 25? C. for a time period of up to 24 hours prior to quenching by the addition of 10 uL of 5% Formic Acid. Quenched samples are centrifuged at 15000 rpm for 15 minutes in a benchtop centrifuge before injecting a 10 uL aliquot onto a reverse phase C4 column and eluting into the mass spectrometer with an increasing acetonitrile gradient in the mobile phase. Analysis of raw data may be carried out using Waters MassLynx MS software, with % bound calculated from the deconvoluted protein peaks for labeled and unlabeled K-Ras.
[2] = as §1; remark: listed apart in the source
[3] = as §1; remark: listed apart in the source
[4] = as §1; remark: listed apart in the source
[5] = as §1; remark: listed apart in the source
[6] = as §1; remark: listed apart in the source
[7] = as §1; remark: listed apart in the source
GTPase KRas = GTPase KRas (Homo sapiens, UniProt P01116); experiment: The purpose of this biochemical assay is to measure the ability of test compounds to covalently label nucleotide-loaded K-Ras isoforms. […] Analysis of raw data may be carried out using Waters MassLynx MS software, with % bound calculated from the deconvoluted protein peaks for labeled and unlabeled K-Ras.

SMILES: CCn1c(-c2cccnc2C(C)OC)c2c3cc(ccc31)N1CCO[C@@H](C[C@H](NC(=O)[C@H](C(C)C)N(C)C(=O)C3(F)CCN(C(=O)C#CC(C)(C)N(C)C)CC3)C(=O)N3CCC[C@H](N3)C(=O)OCC(C)(C)C2)C1 (some centres undefined)
- IC50 [1]: in the range around 5.5 µM
- IC50 [2]: in the range around 0.55 µM
- IC50 [3]: in the range around 5.5 µM
- IC50 [4]: in the range around 5.5 µM
- IC50 [5]: in the range around 5.5 µM
- IC50 [6]: < 0.01 µM
- IC50 [7]: in the range around 5.5 µM

SMILES: C=CC(=O)N1CC[C@H](C(=O)N(C)[C@H](C(=O)N[C@H]2Cc3cc(O)cc(c3)-c3ccc4c(c3)c(c(-c3cncc(CCN(C)C)c3)n4CC)CC(C)(C)COC(=O)[C@@H]3CCCN(N3)C2=O)C(C)C)C1
- IC50 (GTPase KRas): in the range around 0.55 µM
- IC50 [3]: in the range around 5.5 µM

SMILES: CCn1c(-c2cccnc2C(C)OC)c2c3cc(ccc31)N1CCC[C@@H](C[C@H](NC(=O)[C@@H](COC3CN(C(=O)C#CC(C)(C)N(C)C)C3)C(C)C)C(=O)N3CCC[C@H](N3)C(=O)OCC(C)(C)C2)C1 (some centres undefined)
- IC50 [1]: > 10 µM
- IC50 [2]: > 10 µM
- IC50 [3]: > 10 µM
- IC50 [4]: > 10 µM
- IC50 [5]: > 10 µM
- IC50 [6]: in the range around 0.055 µM
- IC50 [7]: > 10 µM

SMILES: C=CC(=O)N1CC[C@H](C(=O)N(C)[C@H](C(=O)N[C@H]2Cc3cc(O)cc(c3)-c3ccc4c(c3)c(c(-c3cnn(C)c3)n4CC)CC(C)(C)COC(=O)[C@@H]3CCCN(N3)C2=O)C(C)C)C1
- IC50 (GTPase KRas): in the range around 0.55 µM
- IC50 [3]: in the range around 5.5 µM

SMILES: COC(C)c1ncccc1-c1c2c3cc(ccc3n1CC(F)(F)F)-c1cccc(c1)CN(NC(=O)[C@@H](COC1CN(C(=O)C#CC(C)(C)N(C)C)C1)C(C)C)C(=O)N1CCC[C@H](N1)C(=O)OCC(C)(C)C2 (some centres undefined)
- IC50 [1]: in the range around 5.5 µM
- IC50 [2]: in the range around 0.55 µM
- IC50 [3]: in the range around 5.5 µM
- IC50 [4]: in the range around 5.5 µM
- IC50 [5]: in the range around 5.5 µM
- IC50 [6]: < 0.01 µM
- IC50 [7]: in the range around 5.5 µM

SMILES: CCn1c(-c2ccccc2COC)c2c3cc(ccc31)-c1cc(O)cc(c1)C[C@H](NC(=O)[C@H](C(C)C)N(C)C(=O)[C@H]1CCN(C(=O)/C=C/CN(C)C)C1)C(=O)N1CCC[C@H](N1)C(=O)OCC(C)(C)C2
- IC50 (GTPase KRas): in the range around 0.055 µM

SMILES: C=CC(=O)N1CC(C(=O)N(C)[C@H](C(=O)N[C@H]2Cc3cc(O)cc(c3)-c3ccc4c(c3)c(c(-c3cccnc3COC)n4CC)CC(C)(C)COC(=O)[C@@H]3CCCN(N3)C2=O)C(C)C)C1
- IC50 (GTPase KRas): in the range around 0.055 µM
- IC50 [3]: in the range around 5.5 µM

SMILES: C=CC(=O)N1CC[C@H](C(=O)N(C)[C@H](C(=O)N[C@H]2Cc3cc(O)cc(c3)-c3ccc4c(c3)c(c(-c3cccnc3COC)n4CC#N)CC(C)(C)COC(=O)[C@@H]3CCCN(N3)C2=O)C(C)C)C1
- IC50 (GTPase KRas): in the range around 0.055 µM

SMILES: CCn1c(-c2cccnc2C(C)OC)c2c3cc(ccc31)N1CCO[C@@H](C[C@H](NC(=O)[C@@H](COC3CCN(C(=O)C#CC(C)(C)N(C)C)CC3)C(C)C)C(=O)N3CCC[C@H](N3)C(=O)OCC(C)(C)C2)C1 (some centres undefined)
- IC50 [1]: > 10 µM
- IC50 [2]: in the range around 5.5 µM
- IC50 [3]: > 10 µM
- IC50 [4]: > 10 µM
- IC50 [5]: > 10 µM
- IC50 [6]: in the range around 0.055 µM
- IC50 [7]: > 10 µM

SMILES: C=CC(=O)Nc1cnc(OC[C@H](C(=O)N[C@H]2Cc3cccc(c3)-c3ccc4c(c3)c(c(-c3cccnc3C(C)OC)n4CC)CC(C)(C)COC(=O)[C@@H]3CCCN(N3)C2=O)C(C)C)n1C (some centres undefined)
- IC50 [1]: in the range around 5.5 µM
- IC50 [2]: in the range around 0.055 µM
- IC50 [3]: in the range around 5.5 µM
- IC50 [4]: in the range around 5.5 µM
- IC50 [5]: in the range around 0.55 µM
- IC50 [6]: < 0.01 µM
- IC50 [7]: in the range around 5.5 µM

SMILES: CCn1c(-c2cccnc2C(C)OC)c2c3cc(ccc31)N1CCC[C@@H](C[C@H](NC(=O)[C@H](C(C)C)N(C)C(=O)[C@H]3CCN(C(=O)C#CC(C)(C)N4CCC4)C3)C(=O)N3CCC[C@H](N3)C(=O)OCC(C)(C)C2)C1 (some centres undefined)
- IC50 [1]: > 10 µM
- IC50 [2]: > 10 µM
- IC50 [3]: > 10 µM
- IC50 [4]: > 10 µM
- IC50 [5]: > 10 µM
- IC50 [6]: in the range around 0.055 µM
- IC50 [7]: > 10 µM

SMILES: C=CC(=O)N1CC[C@H](C(=O)N(C)[C@H](C(=O)N[C@H]2Cc3cc(O)cc(c3)-c3ccc4c(c3)c(c(-c3cccnc3CN(C)C)n4CC)CC(C)(C)COC(=O)[C@@H]3CCCN(N3)C2=O)C(C)C)C1
- IC50 (GTPase KRas): in the range around 0.55 µM
- IC50 [3]: in the range around 5.5 µM

SMILES: CCn1c(-c2cccnc2C(C)OC)c2c3cc(ccc31)-c1csc(n1)C[C@H](NC(=O)[C@@H](COC1CN(C(=O)C#CC(C)(C)N(C)C)C1)C(C)C)C(=O)N1CCC[C@H](N1)C(=O)OCC(C)(C)C2 (some centres undefined)
- IC50 [1]: > 10 µM
- IC50 [2]: in the range around 5.5 µM
- IC50 [3]: in the range around 5.5 µM
- IC50 [4]: > 10 µM
- IC50 [5]: in the range around 5.5 µM
- IC50 [6]: < 0.01 µM
- IC50 [7]: > 10 µM

SMILES: C=CC(=O)N1CC[C@H](C(=O)N(C)[C@H](C(=O)N[C@H]2Cc3cc(O)cc(c3)-c3ccc4c(c3)c(c(-c3ccc(CN(C)C)cc3COC)n4CC)CC(C)(C)COC(=O)[C@@H]3CCCN(N3)C2=O)C(C)C)C1
- IC50 (GTPase KRas): in the range around 0.055 µM

SMILES: C=CC(=O)N1CC[C@H](C(=O)N(C)[C@H](C(=O)N[C@H]2Cc3cc(O)cc(c3)-c3ccc4c(c3)c(c(-c3ccccc3CN(C)C)n4CC)CC(C)(C)COC(=O)[C@@H]3CCCN(N3)C2=O)C(C)C)C1
- IC50 (GTPase KRas): in the range around 0.055 µM

SMILES: C=CC(=O)N1CC(OC[C@H](C(=O)N[C@H]2C[C@H]3CN(CCO3)c3ccc4c(c3)c(c(-c3cccnc3C(C)OC)n4CC(F)(F)F)CC(C)(C)COC(=O)[C@@H]3CCCN(N3)C2=O)C(C)C)C1 (some centres undefined)
- IC50 [1]: in the range around 5.5 µM
- IC50 [2]: in the range around 5.5 µM
- IC50 [3]: in the range around 5.5 µM
- IC50 [4]: > 10 µM
- IC50 [5]: in the range around 5.5 µM
- IC50 [6]: in the range around 0.55 µM
- IC50 [7]: > 10 µM

SMILES: C=CC(=O)N1CC[C@H](C(=O)N(C)[C@H](C(=O)N[C@H]2Cc3cc(O)cc(c3)-c3ccc4c(c3)c(c(-c3ccc(C5CCN(C)CC5)nc3)n4CC)CC(C)(C)COC(=O)[C@@H]3CCCN(N3)C2=O)C(C)C)C1
- IC50 (GTPase KRas): in the range around 0.55 µM
- IC50 [3]: in the range around 5.5 µM

SMILES: C=CC(=O)N1CC[C@H](C(=O)N(C)[C@H](C(=O)N[C@H]2Cc3cc(OC(=O)N(C)CC(=O)O)cc(c3)-c3ccc4c(c3)c(c(-c3ccccc3CCOC)n4CC)CC(C)(C)COC(=O)[C@@H]3CCCN(N3)C2=O)C(C)C)C1
- IC50 (GTPase KRas): in the range around 0.55 µM

SMILES: C=CC(=O)N1CC[C@H](C(=O)N(C)[C@H](C(=O)N[C@H]2Cc3cc(O)cc(c3)-c3ccc4c(c3)c(c(-c3ccc5c(c3)CCN(C)C5)n4CC)CC(C)(C)COC(=O)[C@@H]3CCCN(N3)C2=O)C(C)C)C1
- IC50 (GTPase KRas): in the range around 0.55 µM
- IC50 [3]: in the range around 5.5 µM

SMILES: CCn1c(-c2cccnc2C(C)OC)c2c3cc(ccc31)N1CCO[C@@H](C[C@H](NC(=O)[C@H](C(C)C)N(C)C(=O)C3(F)CCN(C(=O)/C=C/CN(C)C)CC3)C(=O)N3CCC[C@H](N3)C(=O)OCC(C)(C)C2)C1 (some centres undefined)
- IC50 [1]: in the range around 5.5 µM
- IC50 [2]: in the range around 0.55 µM
- IC50 [3]: in the range around 5.5 µM
- IC50 [4]: in the range around 5.5 µM
- IC50 [5]: in the range around 5.5 µM
- IC50 [6]: in the range around 0.055 µM
- IC50 [7]: > 10 µM

SMILES: CCn1c(-c2cccnc2C(C)OC)c2c3cc(ccc31)-c1cccc(c1)C[C@H](NC(=O)[C@@H](COC1CN(C(=O)C#C[C@H]3COCCN3C)C1)C(C)C)C(=O)N1CCC[C@H](N1)C(=O)OCC(C)(C)C2 (some centres undefined)
- IC50 [1]: > 10 µM
- IC50 [2]: in the range around 5.5 µM
- IC50 [3]: > 10 µM
- IC50 [4]: > 10 µM
- IC50 [5]: > 10 µM
- IC50 [6]: in the range around 0.055 µM
- IC50 [7]: > 10 µM

SMILES: C=CC(=O)N1CC(OC[C@H](C(=O)N[C@H]2Cc3cc(F)cc(c3)-c3ccc4c(c3)c(c(-c3cccnc3C(C)OC)n4CC(F)(F)F)CC(C)(C)COC(=O)[C@@H]3CCCN(N3)C2=O)C(C)C)C1 (some centres undefined)
- IC50 [1]: in the range around 5.5 µM
- IC50 [2]: in the range around 0.55 µM
- IC50 [3]: in the range around 5.5 µM
- IC50 [4]: in the range around 5.5 µM
- IC50 [5]: in the range around 0.55 µM
- IC50 [6]: in the range around 0.55 µM
- IC50 [7]: in the range around 5.5 µM

SMILES: C=CC(=O)N1CCC(F)(C(=O)N(C)[C@H](C(=O)N[C@H]2C[C@H]3CN(CCO3)c3ccc4c(c3)c(c(-c3cccnc3C(C)OC)n4CC)CC(C)(C)COC(=O)[C@@H]3CCCN(N3)C2=O)C(C)C)CC1 (some centres undefined)
- IC50 [1]: in the range around 5.5 µM
- IC50 [2]: in the range around 0.55 µM
- IC50 [3]: in the range around 5.5 µM
- IC50 [4]: in the range around 5.5 µM
- IC50 [5]: in the range around 5.5 µM
- IC50 [6]: in the range around 0.055 µM
- IC50 [7]: in the range around 5.5 µM

SMILES: C=CC(=O)N1CCOC2(CCN(C(=O)N(C)[C@H](C(=O)N[C@H]3Cc4cc(CF)cc(c4)-c4ccc5c(c4)c(c(-c4cccnc4C(C)OC)n5CC(F)(F)F)CC(C)(C)COC(=O)[C@@H]4CCCN(N4)C3=O)C(C)C)CC2)C1 (some centres undefined)
- IC50 [1]: in the range around 0.55 µM
- IC50 [2]: in the range around 0.055 µM
- IC50 [3]: in the range around 0.55 µM
- IC50 [4]: in the range around 0.55 µM
- IC50 [5]: in the range around 0.055 µM
- IC50 [6]: in the range around 0.55 µM
- IC50 [7]: in the range around 0.55 µM

SMILES: C=CC(=O)N1CC[C@H](C(=O)N(C)[C@H](C(=O)N[C@H]2Cc3cc(O)cc(c3)-c3ccc4c(c3)c(c(C3=C(COC)COCC3)n4CC)CC(C)(C)COC(=O)[C@@H]3CCCN(N3)C2=O)C(C)C)C1
- IC50 (GTPase KRas): in the range around 0.055 µM
